Data as given in US20230320978A1, “COMPOSITIONS AND METHODS FOR LOWERING INTRACRANIAL PRESSURE” (THE REGENTS OF THE UNIVERSITY OF COLORADO, A BODY CORPORATE, priority 2020, published 2023).

Experiments:
Format in all cases: in vivo
[1] = test system: C57/BL6 mice; assay: Tracer recovery from nasal mucosa after single intranasal dose and ventricular injection of fluorescent tracer; conditions: single intranasal dose; for increase in nasal tracer recovery relative to vehicle-treated controls: commercial concentrations, p<0.05 vs control; for nasal tracer recovery at higher doses: higher doses than the commercial concentration (5x or 10x); for increase in tracer recovery from the nasal mucosa relative to control animals: p<0.001 compared to control
Method: In another exemplary method, compositions including prostaglandin F2-alpha analogues were used to analyze increased lymphatic channel contractility in the nasal mucosa of experimental animals. In this example, prostaglandin F2-alpha analogues latanoprost, bimatoprost, travoprost, latanoprostene bunod, and tafluprost were administered via an intranasal vehicle into the nasal mucosa of mice.
In this example, a total of 67 animals were studied using a scaled dosing technique in which each prostaglandin analog was evaluated at its commercial ophthalmic concentration as well as one or two more concentrated forms (either 5× or 10×).
Commercially available prostaglandin F2-alpha analogues used in the treatment of glaucoma were selected for evaluation; these included latanoprost, bimatoprost, travoprost, latanoprostene bunod, and tafluprost. Initial experiments were conducted with topical ophthalmic preparations, and pharmaceutical grade drug also was obtained and placed into solution for use in a more concentrated form. Agents were solubilized in DMSO and diluted in normal saline.
For single inhalation trails described herein, awake adult male and female C57/BL6 mice (approx. 6 weeks of age) were administered intranasal vehicle (10% DMSO) or drug solution (total 8 μl) by placing droplets (1-2 μl) of liquid at the nares using a micropipette and allowing the animal to inhale the liquid spontaneously. Anesthesia with ketamine and xylazine was administered via intraperitoneal injection, and anesthetized animals were placed within a stereotaxic apparatus. For multiday studies, intranasal drug administration was performed on awake animals daily using the same procedure described above. Approximately 6 hours after the third daily dose was given, animals were anesthetized and placed within a stereotaxic apparatus. A midline incision was created along the scalp, and the right lateral ventricle was targeted with placement of a 26-gauge needle to a depth of 3 mm into the brain at a position 1 mm lateral and 0.3 mm anterior to bregma. A 5 μl intraventricular injection of fluorescent tracer (AlexaFluor^647-ovalbumin solution) was delivered at a rate of 100 nl/seconds using a Hamilton syringe and an electric pump. Animals remained anesthetized for the 1 hour recovery period post injection and were then euthanized with a lethal overdose of ketamine followed by secondary cervical dislocation. Nasal turbinates were harvested, and tissue extracts were analyzed by ELISA.
The experimental technique was validated by evaluating recovery of fluorescent tracer from nasal mucosa after ventricular injection in the absence of intranasal treatment. Time points for tissue harvest were selected based on increased recovery at 60 minutes versus 30 minutes, with later harvest raising concern for potential contamination of specimens by hematogenous CSF absorption and recirculation of tracer throughout the tissues via arterial flow.
Statistical analyses were conducted with Stata using either two-tailed Student's t-tests or ANOVA RM with Dunnet's post hoc analysis.

[2] = test system: C57/BL6 mice; assay: as above; conditions: single inhalation, lower doses, p<0.05 relative to controls
[3] = test system: C57/BL6 mice; assay: Tracer recovery from nasal turbinates after intranasal dosing once a day for three consecutive days; conditions: 0.1, 0.5 or 1 mg/ml once a day for 3 days
Method: In another example, an additional 14 animals were administered inhaled doses of latanoprost (either 0.1, 0.5, or 1 mg/ml) once a day for three (3) consecutive days. Nasal turbinates were isolated 1 hour after ventricular tracer injection and between 7 and 9 hours after the final latanoprost dose was given intranasally according to the exemplary methods described herein.
For single inhalation trails described herein, awake adult male and female C57/BL6 mice (approx. 6 weeks of age) were administered intranasal vehicle (10% DMSO) or drug solution (total 8 μl) by placing droplets (1-2 μl) of liquid at the nares using a micropipette and allowing the animal to inhale the liquid spontaneously. Anesthesia with ketamine and xylazine was administered via intraperitoneal injection, and anesthetized animals were placed within a stereotaxic apparatus. For multiday studies, intranasal drug administration was performed on awake animals daily using the same procedure described above. Approximately 6 hours after the third daily dose was given, animals were anesthetized and placed within a stereotaxic apparatus. […] Nasal turbinates were harvested, and tissue extracts were analyzed by ELISA. […]

For `CCNC(=O)CCC/C=C\C[C@@H]1[C@@H](/C=C/[C@@H](O)CCc2ccccc2)[C@H](O)C[C@@H]1O` [bimatoprost], the “increase in nasal tracer recovery relative to vehicle-treated controls” value [1] was “approximately 1.5 fold”, the “nasal tracer recovery at higher doses” value [1] was “did not appear to improve at higher doses” and the “tracer recovery relative to controls, fluorometric analysis of nasal turbinate homogenates (words, FIG. 3)” value [2] was “Some enhanced tracer recovery relative to controls”.

`CC(C)OC(=O)CCC/C=C\C[C@@H]1[C@@H](CC[C@@H](O)CCc2ccccc2)[C@H](O)C[C@@H]1O` [latanoprost, isopropyl (Z)-7-[(1R,2R,3R,5S)-3,5-dihydroxy-2-[(3R)3-hydroxy-5-phenylpentyl]-cyclopentyl] hept-5-enoate] was tested, and the “increase in tracer recovery from the nasal mucosa relative to control animals” value ([1]; 0.5 mg/ml solution, after 60 minutes) was “approximately 10 fold”, the “increase in tracer recovery from the nasal mucosa relative to control animals” value ([1]; 1 mg/ml solution, after 60 minutes) was “approximately 10 fold” and the “dose dependence of the increase in tracer recovery from the nasal mucosa” value ([1]; 0.1 to 1 mg/ml, after 60 minutes) was “semi dose-dependent increase”. For the same molecule, the “tracer recovery compared with all tested prostaglandin analogs and 0.1 mg/ml latanoprost” value ([1]; concentrated 0.5 mg/ml and 1 mg/ml) was “significant increase in tracer recovery over all tested prostaglandin analogs and 0.1 mg/ml latanoprost”, the “increased tracer recovery vs control” value ([1]; standard ophthalmic dose 0.1 mg/ml, p<0.01 vs control) was “approximately 6 fold” and the “difference in tracer recovery amongst the 3 doses” value [3] was “no statistically significant difference”. The “increase in tracer recovery relative to controls” value ([3]; turbinates isolated 1 hour after tracer injection, 7 to 9 hours after final dose, p<0.05) was ~3 fold.

`O=C(CCC/C=C\C[C@@H]1[C@@H](CC[C@@H](O)CCc2ccccc2)[C@H](O)C[C@@H]1O)OCCCCO[N+](=O)[O-]` [latanoprostene bunod] was tested, and the “effect on nasal tracer recovery at any tested dose” value [1] was “Neither travoprost nor latanoprostene bunod demonstrated a measurable effect”.

For `CC(C)OC(=O)CCC/C=C\C[C@@H]1[C@@H](/C=C/C(F)(F)COc2ccccc2)[C@H](O)C[C@@H]1O` [tafluprost], the “increase in nasal tracer recovery relative to vehicle-treated controls” value [1] was “approximately 1.5 fold”, the “nasal tracer recovery at higher doses” value [1] was “did not appear to improve at higher doses” and the “tracer recovery relative to controls, fluorometric analysis of nasal turbinate homogenates (words, FIG. 3)” value [2] was “Some enhanced tracer recovery relative to controls”.

`CC(C)OC(=O)CCC/C=C\C[C@@H]1[C@@H](/C=C/[C@@H](O)COc2cccc(C(F)(F)F)c2)[C@H](O)C[C@@H]1O` [travoprost] was tested, and the “effect on nasal tracer recovery at any tested dose” value [1] was “Neither travoprost nor latanoprostene bunod demonstrated a measurable effect”.
